Results reported in patent publication US12024502B2, “Biased adrenergic agonists” (University of South Florida, priority 2021, dated 2024).

What was measured:
[1] = tested on: ERK1/2; assay: ERK1/2 activation immunoblot in the presence of PKA inhibitor H89; format: cell-based, human; settings: β2AR transfected HEK-293 cells; PKA inhibitor H89 present; vs vehicle control
[2] = tested on: human airway smooth muscle (HASM) cells; assay: Magnetic twisting cytometry (MTC) of HASM cells: relaxation and desensitization; format: cell-based; settings: 1.0 mM ALB or 100 mM C1-S as printed, then 10 μM ISO
Experimental: CHW cells were transfected to stably express the human β2AR under G418 selection and maintained in monolayers as previously described. Transient transfections of HEK-293T cells with constructs to express human β-arrestin2-myc, human β-arrestin2-GFP, human β2AR and β2AR-GFP, were performed using Lipofectamine 2000 (Invitrogen), and studied 48 hrs later. CHO cells stably expressing a modified β2AR and a modified β-arrestin2 for the ECA were purchased from DiscoverX. In some experiments, these cells were transiently transfected with 5 μg GRK2 cDNA. Primary HASM cells were derived from donor lungs obtained from the National Disease Exchange Registry and maintained as monolayers, and utilized between passages 3 and 6 for the physiological studies. […]
MTC was used to measure dynamic changes in the cytoskeletal stiffness as a surrogate for agonist-induced single-cell relaxation. […] Forced bead motions were detected optically with a spatial resolution of ˜5 nm, and their changes monitored, in real time, in response to b-agonist (HASM cell relaxation). […] The response to 10 μM isoproterenol (final concentration) added to the media was then determined every 1.3 sec. […] The greatest relaxation change from baseline observed at any point over the time course was utilized to quantify the maximal HASM response to isoproterenol.

## CC(C)NCC(O)c1ccc(O)c(O)c1 (stereo not shown) [ISO, isoproterenol]
[1]
  activation of ERK1/2: activation of ERK1/2

## CC(C)(C)NCC(O)c1ccc(O)c(CO)c1 (stereo not shown) [ALB, albuterol]
[2]; 30 min pretreatment
  desensitization of β2AR-mediated HASM cell relaxation response to ISO: caused desensitization
[2]; 4 hour pretreatment
  desensitization of β2AR-mediated HASM cell relaxation response to ISO: caused desensitization
[1]
  activation of ERK1/2: activation of ERK1/2
